Experimental data published in EP3723745B1, “PHENOXY ACIDS FOR THE TREATMENT OF NEUROMUSCULAR DISORDERS” (NMD Pharma A/S, priority 2017, dated 2019).

What was measured:
[1] = test system: soleus muscles; assay: Measurement of force in an in vitro model: isolated rat nerve-muscle preparation with tubocurarine; settings: Rattus norvegicus, 40 min; percentage of initial force restored after 40 mins with 50 µM test compound; tubocurarine (115 nM) for 90 mins; read-out: Point increase
Protocol: Recovery of force is quantified as the percentage of the force prior to tubocurarine that is recovered by the compound.
The current invention relates to compounds that inhibit CIC-1 ion channels and increase muscle excitability and thereby improve muscle function in clinical conditions where muscle activation is failing. Such conditions result in loss of contractile function of skeletal muscle, weakness and excessive fatigue. In this series of experiments the compounds were tested for their ability to restore contractile function of isolated rat muscle when the neuromuscular transmission had been compromised akin to neuromuscular disorders.
Experimentally, soleus muscles from 4-5 wk old rats were isolated with the motor nerve remaining attached. The nerve-muscle preparations were mounted in experimental setups that enabled electrical stimulation of the motor nerve. Stimulation of the motor nerve led to activation of the muscle fibres and ensuing force production that was recorded.
After mounting the nerve-muscle preparation in the experimental setup, the contractile function of the muscle was initially assessed under the control conditions (Figure 2A). […] The experimental condition mimics the failing neuromuscular transmission in a range of neuromuscular disorders. After addition of tubocurarine the contractile force declined over the next 90 mins to 10-50 % of the control force. 50 µM of the test compound was then added and the contractile force recovered despite the continued presence of tubocurarine. To quantify the ability of the compound to restore force the percentage of the initial force that was restored was determined after 40 mins of compound exposure (Figure 2B) and the point increase is reported in Table 3. Table 3: Percentage increase of initial force that was restored using compounds of the invention

[2] = target: T1, human CIC-1 channels (Homo sapiens, UniProt P35523); assay: Automated patch-clamp on human CIC-1 expressed in CHO cells; type: cell-based; settings: difference in half activation voltage, compound added intracellularly vs control cell patches; positive shift = CIC-1 inhibition
T1 construct: host or cells: CHO cells constitutively expressing human ClC-1
T1 sequence (P35523 whole entry): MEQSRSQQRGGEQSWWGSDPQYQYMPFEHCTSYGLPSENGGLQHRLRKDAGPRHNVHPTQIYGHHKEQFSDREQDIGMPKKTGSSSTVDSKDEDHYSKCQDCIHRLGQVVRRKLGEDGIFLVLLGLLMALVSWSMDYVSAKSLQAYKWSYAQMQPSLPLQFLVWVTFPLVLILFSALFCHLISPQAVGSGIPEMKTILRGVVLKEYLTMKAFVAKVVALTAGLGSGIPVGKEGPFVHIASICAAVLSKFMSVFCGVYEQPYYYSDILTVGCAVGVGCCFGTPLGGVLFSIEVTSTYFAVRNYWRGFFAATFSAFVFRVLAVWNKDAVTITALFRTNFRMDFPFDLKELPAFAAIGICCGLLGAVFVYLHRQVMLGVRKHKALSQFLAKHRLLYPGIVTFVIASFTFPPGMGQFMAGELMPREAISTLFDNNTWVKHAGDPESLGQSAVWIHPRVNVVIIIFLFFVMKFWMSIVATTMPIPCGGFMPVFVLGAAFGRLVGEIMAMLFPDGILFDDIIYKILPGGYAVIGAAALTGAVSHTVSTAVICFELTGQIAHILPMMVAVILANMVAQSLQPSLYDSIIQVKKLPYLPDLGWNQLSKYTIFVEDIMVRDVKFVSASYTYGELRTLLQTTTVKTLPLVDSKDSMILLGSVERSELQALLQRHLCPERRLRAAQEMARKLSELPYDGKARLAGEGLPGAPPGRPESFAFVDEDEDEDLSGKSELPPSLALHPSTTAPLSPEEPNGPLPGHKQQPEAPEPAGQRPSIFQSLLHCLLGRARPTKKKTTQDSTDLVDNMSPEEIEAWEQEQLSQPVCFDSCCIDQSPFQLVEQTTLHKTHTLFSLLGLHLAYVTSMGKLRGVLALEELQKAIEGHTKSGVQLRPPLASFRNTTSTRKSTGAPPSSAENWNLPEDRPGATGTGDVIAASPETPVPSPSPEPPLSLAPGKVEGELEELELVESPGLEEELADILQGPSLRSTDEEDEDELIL
Protocol: The investigatory goal of these experiments was to evaluate how compounds affect the open probability and current amplitude of human CIC-1 channels expressed in CHO cells. Experiments were performed using an automated patch clamp system that allowed high throughput testing of whole cell patches together with both intracellular and extracellular addition of compound.
Automated whole cell patch clamp experiments were performed with the Qpatch 16 system (Sophion Bioscience, Ballerup, Denmark) at room temperature. Data acquisition and analysis were performed in the Qassay software (ver. 5.6, Odense).
To evoke CIC-1 currents in whole cell patches, the membrane potential was initially stepped from a holding potential of -30 mV to +60 mV for 100 ms and then to various test voltages (sweeps) ranging from +120 mV to -140 mV in steps of 20 mV for 300 ms. To obtain tail currents, the membrane potential was stepped to -100 mV after each test voltage for 300 ms and then relaxed to -30 mV for 2 sec between sweeps (Figure 3). I/V relationships for whole cell instant and steady state current amplitudes were obtained by plotting average current densities at the beginning and at the end of the 300 ms step against the membrane potential (Figure 4).
In order to determine the relative overall open probability (P0), the instantaneous tail currents were normalized to the maximal tail current obtained following the most positive voltage step and plotted against the test voltage. Plots of normalized tail currents from each whole cell patch were then fitted to a Boltzmann function allowing determination of half activation voltages (V1/2, Figure 5).
For automated patch clamp experiments extracellular solutions contained: 2 mM CaCl2, 1 mM MgCl2, 10 mM HEPES, 4 mM KCI, 145 mM NaCl, 10 mM Glucose, pH adjusted to 7.4 with NaOH (2 M). Osmolality adjusted to -320 using sucrose.
Intracellular solutions contained: 80 mM CsF, 60 mM CsCI, 5/1 mM KOH/EGTA, 10 mM HEPES, 10 mM NaCl, pH adjusted to 7.2 with NaOH (2 M). Osmolality adjusted to -320 mOsm using sucrose.
Cells used in patch clamp experiments were Chinese hamster ovary cells (CHO) constitutively expressing human CIC-1 channels. The amino acid sequence encoded by the cDNA used to create this cell line was identical to the translated sequence for GenBank accession number NM_000083.2. Cells were produced by Charles River (Catalogue CT6175, Cleveland OH, USA) in a cryopreserved format. Experiments were performed on the cells directly after thawing (3 × 10^6 cells used in each experiment).
To evaluate the compound effect on CIC-1, when applied directly to the intracellular side of the cell membrane, the half activation voltage, V1/2, was determined from whole cell patches with compound added to the intracellular solution and then compared to V1/2 determined from control cell patches with only vehicle added to the intracellular solution. Additionally, the effect of extracellular added compound was evaluated by determine V1/2 and steady state current amplitudes before and after exchanging the extracellular solution to contain compound.
The difference in half activation voltage of CIC-1 channels, ΔV1/2, was determined as the difference between the cell patches treated intracellularly with compound and control cells patches and is reported in Table 4 below. A positive shift in ΔV1/2 is reflecting CIC-1 channel inhibition by the tested compound. P-values of <0.05 is considered significant. […]

[3] = test system: female Lewis rats; assay: Measurement of in situ muscle contractile characteristics (isometric hindlimb force, cisatracurium block); type: in vivo, rat; settings: for average increase in twitch peaks: 12 Hz; for average increase in twitch peaks / average increase in tetanic force: cisatracurium infusion; for average increase in tetanic force: 80 Hz; for restore force to muscles in vivo: muscles partially inhibited by a neuromuscular blocker, summary in words
Protocol: Isometric hindlimb force was measured in 12-week old female Lewis rats in the presence and absence of compound.
Rats were placed under anesthesia with isoflurane (2-4%), intubated and subsequently connected to a micro ventilator (Microvent 1, Hallowell EMC, US). Two stimulation electrodes were inserted through the skin to stimulate the sciatic nerve. A small incision was made proximal to the ankle, to expose the Achilles tendon, which was tied by cotton string, and connected to a force transducer (Fort250, World Precision Instruments) with adjustable position (Vernier control). The Achilles tendon was then cut distal to the attached cotton string. The rat was placed on a heated pad, and to prevent movement artefacts from contraction of the ankle dorsiflexors, the foot was fixated by tape on a footplate.
Muscle contractile properties were assessed by applying an electrical current (under supramaximal voltage conditions) to the nerve and recording the force generated by the muscle. The muscle was stretched until maximal force was obtained, when assessed by 2 Hz stimulation. Isometric force was measured every 30 seconds at 12 Hz (Twitch), 10 pulses, and at every 5 minutes at 80 Hz (Tetanic) for 1 second (80 pulses). This stimulation pattern was employed throughout the experiment, expect in few cases where 80 Hz stimulation was replaced by 12 Hz (10 pulses). […] When the level of neuromuscular inhibition was stable, the test article was injected i.v. at the chosen concentration. The effect of test article was assessed on its ability to increase force generated from the stimulation pattern applied. The effect was assessed in the ability to increase force per se (tetanic, 80 Hz, stimulation), and the ratio between individual twitch peaks (12 Hz stimulation). The effect was monitored for at least 1 hour after injection of test article. In addition, the time from injection of test article to maximal effect on force (both twitch and tetanic) was noted and the time for the effect to disappear (return to baseline), if possible. When appropriate the infusion of neuromuscular blocking agent was ceased, with the stimulation pattern continued, and the return of force to control levels was monitored. Animals were sacrificed by cervical dislocation while still fully sedated.

**Q.** With `O=C(O)[C@H](CCF)Oc1ccc(Br)cc1` [Compound A-87, (2S)-2-(4-bromophenoxy)-4-fluorobutanoic acid] as the compound, how does the activation at 50 µM [1] read?
**A.** 37%

**Q.** And the ΔV1/2 [2]?
**A.** 16.4 mV

**Q.** What about the “average increase in twitch peaks” value ([3]; 42 mg/kg i.v.) of the same compound?
**A.** 5.8%

**Q.** And the “average increase in tetanic force” value ([3]; 42 mg/kg i.v.)?
**A.** 19.3%

**Q.** And the “restore force to muscles in vivo” value [3]?
**A.** can restore force

**Q.** How did the activation at 50 µM [1] turn out when `[2H][C@@](CC)(Oc1ccc(Br)cc1)C(=O)O` [Compound A-60, (2S)-2-(4-bromophenoxy)(2-^2H)butanoic acid] was run?
**A.** 62%

**Q.** What about the ΔV1/2 [2] of the same compound?
**A.** 20.0 mV

**Q.** And the “average increase in twitch peaks” value ([3]; 20 mg/kg i.v.)?
**A.** 18.5%

**Q.** And the “average increase in tetanic force” value ([3]; 20 mg/kg i.v.)?
**A.** 52.7%

**Q.** And the “restore force to muscles in vivo” value [3]?
**A.** can restore force

**Q.** With `CC(C)[C@H](Oc1ccc(Br)cc1F)C(=O)O` [Compound A-27, (2S)-2-(4-bromo-2-fluorophenoxy)-3-methylbutanoic acid] as the compound, how does the activation at 50 µM [1] read?
**A.** 46%

**Q.** What about the ΔV1/2 [2] of the same compound?
**A.** 20.2 mV

**Q.** What about the “average increase in twitch peaks” value ([3]; 40 mg/kg i.v.) of the same compound?
**A.** 12.2%

**Q.** What about the “average increase in tetanic force” value ([3]; 40 mg/kg i.v.) of the same compound?
**A.** 36.4%

**Q.** What about the “restore force to muscles in vivo” value [3] of the same compound?
**A.** can restore force
